| Compound | melting point [°C] |
| --- | --- |
| CCC(=O)Nc1cc(-c2c(-c3ccc(F)c(C)c3)nc3cccnn23)ccn1 | 166 to 167 |
| Cc1cccc2[nH]c(=O)n(S(=O)(=O)c3ccc(Cl)cc3)c(=O)c12 | > 250 |
| Cc1cc(N2CCCC2)c2ccc(I)cc2n1 | 99 to 102 |
| COc1ccc2cnc(=O)[nH]c2c1C1CCCC1 | 201 to 204 |
| CCn1c(=O)[nH]c2ncccc2c1=O | 240 to 241 |
| CCn1cc(C(=O)O)c(=O)c2cc(F)c(N3CCN(C)C(c4ccc(C)s4)C3)cc21 (stereo not drawn) | 224 |
| CN1CCC(=C2c3ccccc3C(CO)=C(CO)c3ccccc32)CC1 | 204 to 205 |
| Cc1ccc(-c2nc(C(=O)Nc3nnn[nH]3)c(C)s2)s1 | 278 to 280 |
| COC(=O)c1ccc(Cc2cn(C)c3ccc(NC(=O)OC4CCCC4)cc23)c(OC)c1 | 134 to 135 |
| O=C1CCCc2c1ccc(O)c2Br | 183 to 186 |
| O=C(Nc1nc(CN2CCC(c3c[nH]c4ccccc34)CC2)cs1)C1CC1 | 120 to 132 |
| CC(C)c1cccc(C(C)C)c1N1C(=O)c2ccccc2C1=O | 172 |
| Cc1cccc2ncc(C(=O)NC3CCCC3)c(=O)n12 | 158 to 160 |
| Cc1cc(=O)oc2cc(NC(=O)C3C(=O)c4ccccc4S(=O)(=O)N3C)ccc12 (stereo not drawn) | > 285 |
| COc1c(N2CC(F)[C@](C)(N)C2)c(F)cc2c(=O)c(C(=O)O)cn([C@@H]3C[C@@H]3F)c12 (stereo partly drawn) | 160 to 163 |
| CCCCc1nc(N)c(C(=O)OCC)[nH]1 | 103 to 106 |
| CCOC(=O)NC(=CC(=O)[C@H](Cc1ccccc1)N(Cc1ccccc1)Cc1ccccc1)Cc1ccccc1 | 91 to 93 |
| CCN(CC)C(=O)Nc1c(C)c(C)c2c(c1C)C(c1ccc(C(C)C)cc1)CO2 (stereo not drawn) | 79 to 81 |
| O=c1[nH]c2ccc(F)cc2s1 | 188 to 189 |

| Compound | melting point [°C] |
| --- | --- |
| Cc1ccc(Br)c(C)c1C(O)=S | 98 to 103 |
| CC(C)Nc1nc2ccccn2c(=O)c1Br | 101 to 104 |
| COc1cc2oc(=O)c(CCCl)c(C)c2cc1O | 230 to 235 |
| CCCc1c(OCCCCc2ccc3c(Cl)c(OC)c(OC)c(Cl)c3c2)ccc(C(=O)OCc2ccccc2)c1O | 66 to 68 |
| O=C1O[C@@H](CNC(=S)C(F)F)CN1c1ccc(C2CCS(=O)CC2)c(F)c1 (stereo partly drawn) | 192 to 194 |
| C[C@@]1(C(=O)O)Oc2ccccc2NC1=O | 168 to 171 |
| COCc1nnc(SCC(=O)C23CC4CC(CC(C4)C2)C3)n1C | 109 to 111 |
| O=C(NCS(=O)(=O)c1ccccc1)c1cc(Cl)nc(Cl)c1 | 209 to 210 |
| CC(C)(C)NC(=O)CN1C(=O)[C@@H](CNC(=O)Nc2cccc(Cl)c2)C[C@H](c2ccccc2)c2ccccc21 | 156 to 170 |
| CCCCCCCCCCCCCC(=O)N(CCCCCCCC)CCC(=O)O | 47 |
| COC(=O)C1=C(O)c2c(c3cc(OC)ccc3n2C)S(=O)(=O)N1 | 225 to 226 |
| COC(=O)c1cc(=O)n2nc(COC(C)=O)nc2[nH]1 | 260 |
| CC(CNS(C)(=O)=O)n1nnc2cc3c(=O)n(C4CC4)nnc3cc2c1=O (stereo not drawn) | 195 to 197 |
| CC(C)c1cccc(C(C)C)c1NC(=O)CN1CCN(CCOc2nc3ccccc3[nH]2)CC1 | 205 to 206 |
| Cc1ccc(Cl)c2sc(N)nc12 | 206 |
| CCOC(=O)c1ncc2[nH]c3ccc(C4COC(O)C4)cc3c2c1C (stereo not drawn) | 177 to 180 |
| CCOC(=O)c1cc2c(s1)CC(C)(C)C2=O | 41 to 42 |
| COC(=O)c1cc2cc(Cl)c(Cl)cc2nc1Cl | 178 to 180 |
| CS(=O)(=O)Nc1cc(-c2nc3ccccn3c2Br)c(F)cc1F | 202 |

Results, then the compound that gave them:

| melting point [°C] | Compound |
| --- | --- |
| 37.4 | CCCCCCCCc1cnc(-c2ccc(OCC(C)OCCC)cc2)nc1 (stereo not drawn) |
| 190 to 191 | COCCNC(=O)Nc1ccc([N+](=O)[O-])cc1O |
| 165 | Cc1nc(-c2ccc(O)cc2)c(C(C)C)s1 |
| 228 | C=Cn1c(=O)c(C#N)c(N2CCN(C(=O)c3cccs3)CC2)c2cccnc21 |
| 97 | CCOC(=O)COc1ccc2c(-c3ccc(Cl)cc3)noc2c1 |
| 90 to 91 | CCOC(=O)COc1nc(-c2ccccc2)nc(C)c1C |
| 196 to 198 | c1cc(-c2n[nH]c3c2Cc2cc(CN4CCOCC4)ccc2-3)cs1 |
| 92 to 93 | N#Cc1ccc2c(c1)C(=O)CC1(CCCCC1)O2 |
| 43 to 46 | Cc1cc(Oc2ccccc2)ccc1[N+](=O)[O-] |
| 115 to 117 | Fc1ccc(/C=C/c2nc(COc3ccc(CCCCn4ccnn4)cc3)co2)c(F)c1 |
| 68 | CC(Oc1ccc(Oc2nc3ccc(Cl)cc3o2)cc1)C(=O)OC[Si](C)(C)C (stereo not drawn) |
| 256 to 258 | O=C(O)Cc1c(C(=O)O)c2cc(Oc3ccc(C(F)(F)F)cc3)ccc2n1-c1ccc(C2CCNCC2)cc1 |
| 122 | Brc1ccc2[nH]cc(Cc3cccnc3)c2c1 |
| 73 to 75 | CC(C(=O)O)c1ccc(N)c(C(F)(F)F)c1 (stereo not drawn) |
| 118 to 119 | COc1cc(COc2nn(-c3ccc(C(F)(F)F)cc3)cc2/C=C/CO)ccc1OCc1nc(-c2ccccc2)oc1C |
| 148 to 156 | CCCS(=O)(=O)Oc1ccc(-c2nc3cc4c(cc3[nH]2)C(C)(C)CC(=O)N4)cc1 |
| 145 | O=S(CCCCCOc1ccc(C2=C(c3ccccc3)CCCc3cc(O)ccc32)cc1)CCCC(F)(F)F (stereo not drawn) |
| 107 to 108 | COCOc1cc(OC)ccc1C(=O)c1ccc(OCc2nc(-c3ccccc3)oc2C)cc1C |

| melting point [°C] | Compound |
| --- | --- |
| 80 to 85 | CC(O)c1ccc(Oc2ccc(NC(=O)Nc3cc(C(C)(C)C)on3)cc2)cc1 (stereo not drawn) |
| 147 to 150 | COCCOc1ccc(CCCOC(=O)NS(=O)(=O)c2ccc(Cl)cc2)c(Oc2ncc(C(F)(F)F)cc2Cl)c1 |
| 191 | CNc1ccc(-c2ccnc(-c3cn(C)c(=O)n3-c3ccc(C(C)(C)C#N)cc3)c2)cn1 |
| 261 to 263 | CS(=O)(=O)Nc1ccc(C#Cc2cnn3c(C(F)(F)F)cc(-c4ccc(C(F)(F)F)cc4)nc23)cn1 |
| 199 to 201 | CNC1COc2ccc3[nH]c(C(F)(F)F)nc3c2O1 (stereo not drawn) |
| 56 to 58 | CCCCCCCCCCCCCCOc1ccc(C(=O)OC)o1 |
| 266 to 267 | Nc1ccc(-c2ccc(=O)[nH]n2)cc1Br |
| 235 to 237 | FC(F)(F)CC1(CC2(CC(F)(F)F)N=c3cc(Cl)c(Cl)cc3=N2)N=c2cc(Cl)c(Cl)cc2=N1 |
| 73 to 75 | COC(=O)C=CC=CCSc1ccc2ccccc2c1 |
| 188 to 189 | COc1cc(C(=O)O)ccc1Cn1ccc2ccc(CC(=O)NCC3CCCC3)cc21 |
| 116 to 117 | CCCCCCCCCCCCCCCCCCc1ccc(S(=O)(=O)Nc2nncs2)cc1 |
| 132 to 134 | COC(=O)CCCC1C(=S)Nc2ccccc21 (stereo not drawn) |
| > 250 | COc1ccc2[nH]c(S(=O)(=O)c3ccc(=O)[nH]n3)cc2c1 |
| 50.2 | C=CCCC(C#N)(C#N)Cc1ccc(OC(F)(F)Br)cc1 |
| 95 to 96 | N#Cc1ncn(Cc2ccc(Cl)c(Cl)c2)c1C#N |
| 201 | O=C(O)CSCC(Cc1ccccc1)NCCS (stereo not drawn) |
| 109 to 110 | CC=CCn1c(C)c(C)c2cnnc(OCc3ccc(OC(F)F)cc3)c21 |

From a melting point compilation (Tetko et al.; mined from patent text by program, amines drawn as free bases though some values may be those of a salt)
